# Biological target: T1, full-length human PKCι (Homo sapiens, UniProt P41743)
# T1 construct: Recombinant, full-length human PKCι expressed in Sf21 insect cells is also commercially available; purchased; host or cells: Sf21 insect cells
# T1 sequence (P41743 1-596): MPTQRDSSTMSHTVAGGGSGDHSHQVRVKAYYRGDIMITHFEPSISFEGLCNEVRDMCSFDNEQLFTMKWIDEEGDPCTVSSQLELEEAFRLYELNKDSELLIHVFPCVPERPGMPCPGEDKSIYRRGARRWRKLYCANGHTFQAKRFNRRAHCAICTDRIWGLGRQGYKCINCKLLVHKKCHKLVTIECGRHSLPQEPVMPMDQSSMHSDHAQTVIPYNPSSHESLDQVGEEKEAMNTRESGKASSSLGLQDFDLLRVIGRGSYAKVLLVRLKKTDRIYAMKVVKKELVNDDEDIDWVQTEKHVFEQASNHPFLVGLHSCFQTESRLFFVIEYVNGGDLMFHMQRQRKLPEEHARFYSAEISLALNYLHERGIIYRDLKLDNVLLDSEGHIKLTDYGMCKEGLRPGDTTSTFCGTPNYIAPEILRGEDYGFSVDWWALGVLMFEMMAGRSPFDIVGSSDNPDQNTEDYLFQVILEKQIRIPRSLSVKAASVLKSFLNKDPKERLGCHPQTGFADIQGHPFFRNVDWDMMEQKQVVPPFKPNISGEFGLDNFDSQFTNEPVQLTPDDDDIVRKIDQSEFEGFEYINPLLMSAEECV
# Assay: PKCι IC50 IMAP fluorescence polarisation assay, full-length enzyme
# Format: biochemical
# Details: full length PKCi at 15 μM ATP; read-out: IC50 in IMAP assay against full length PKCi
# Protocol: Assays are based on the ability of PKCι to phosphorylate a commercially available peptide substrate in vitro. […] Recombinant, full-length human PKCι expressed in Sf21 insect cells is also commercially available. Recombinant, kinase-domain human PKCι is expressed and purified in-house.
# The procedure below explains how dose response curves for inhibitors of PKCι are obtained.
# Compounds to be tested are dissolved in 100% DMSO. […] 1 μl is plated into 384 well black low-binding flat bottomed assay plates which are used immediately. Dilutions and additions of compound to assay plates are carried out using Matrix WellMate® and Matrix PlateMate® Plus liquid handling systems.
# The final concentration of peptide substrate in the assay is 100 nM. […] Relevant controls are included, namely no compound and no enzyme. […] The reaction is allowed to incubate for 60 minutes at room temperature, before the reaction is stopped and developed by the addition of 20 μl IMAP™ development reagent (Molecular Devices). IMAP development reagent consists of 0.25% (v/v) IMAP progressive binding reagent, 17% (v/v) IMAP progressive binding buffer A and 3% (v/v) IMAP progressive binding buffer B. The plates are then incubated for 2 hours at room temperature before being read using an appropriate plate reader, for example a Molecular Devices HT Analyst or a BMG Pherastar.
row,Structure (SMILES),IC50 [nM]
1,"c1csc(-c2ccc(Nc3cc(-c4nc(N[C@@H]5CCNC5)c5sccc5n4)ccn3)cc2)c1 [compound 616, (R)-Pyrrolidin-3-yl-{2-[2-(4-thiophen-2-yl-phenylamino)-pyridin-4-yl]-thieno[3,2-d]pyrimidin-4-yl}-amine]",100 to 1000
2,"Cc1c(Br)sc2c(N[C@@H]3CCNC3)nc(-c3ccncc3)nc12 [compound 340, (6-Bromo-7-methyl-2-pyridin-4-yl-thieno[3,2-d]pyrimidin-4-yl)-(R)-pyrrolidin-3-yl-amine]",100 to 1000
3,"N[C@H](CNc1nc(-c2ccncc2F)nc2c(C#CCCO)csc12)Cc1ccccc1 [compound 501, 4-[4-((S)-2-Amino-3-phenyl-propylamino)-2-(3-fluoro-pyridin-4-yl)-thieno[3,2-d]pyrimidin-7-yl]-but-3-yn-1-ol]",100 to 1000
4,"CC(C)(C)c1ccc(-c2cc3nc(-c4ccncc4)nc(N4CCNCC4)c3s2)cc1 [compound 357, 6-(4-tert-Butyl-phenyl)-4-piperazin-1-yl-2-pyridin-4-yl-thieno[3,2-d]pyrimidine]",10000 to 40000
5,"N[C@H](CNc1nc(-c2ccncc2)nc2c(C#CC3(O)CC3)csc12)Cc1ccccc1 [compound 532, 1-[4-((S)-2-Amino-3-phenyl-propylamino)-2-pyridin-4-yl-thieno[3,2-d]pyrimidin-7-ylethynyl]-cyclopropanol]",< 100
6,"N[C@H](CNc1nc(-c2ccncc2F)nc2ccsc12)Cc1ccccc1 [compound 355, (S)-N*1*-[2-(3-Fluoro-pyridin-4-yl)-thieno[3,2-d]pyrimidin-4-yl]-3-phenyl-propane-1,2-diamine]",1000 to 10000
7,"c1cc(-c2nc(N[C@@H]3CCNC3)c3sccc3n2)cc(NCC2CC2)n1 [compound 597, {2-[2-(Cyclopropylmethyl-amino)-pyridin-4-yl]-thieno[3,2-d]pyrimidin-4-yl}-(R)-pyrrolidin-3-yl-amine]",1000 to 10000
8,"c1cn(Cc2ccc(Nc3cc(-c4nc(N[C@@H]5CCNC5)c5sccc5n4)ccn3)cc2)cn1 [compound 614, {2-[2-(4-Imidazol-1-ylmethyl-phenylamino)-pyridin-4-yl]-thieno[3,2-d]pyrimidin-4-yl}-(R)-pyrrolidin-3-yl-amine]",100 to 1000
9,"N[C@H](CNc1nc(-c2ccncc2)nc2c(NC(=O)C3CCCCC3)csc12)Cc1ccccc1 [compound 474, Cyclohexanecarboxylic acid [4-((S)-2-amino-3-phenyl-propylamino)-2-pyridin-4-yl-thieno[3,2-d]pyrimidin-7-yl]-amide]",10000 to 40000
10,"CC[C@H](Nc1cc(-c2nc(N[C@@H]3CCNC3)c3sccc3n2)ccn1)c1ccccc1 [compound 589, {2-[2-((S)-1-Phenyl-propylamino)-pyridin-4-yl]-thieno[3,2-d]pyrimidin-4-yl}-(R)-pyrrolidin-3-yl-amine]",1000 to 10000
11,"Fc1ccccc1Nc1csc2c(N[C@@H]3CCNC3)nc(-c3ccncc3F)nc12 [compound 500, N*7*-(2-Fluoro-phenyl)-2-(3-fluoro-pyridin-4-yl)-N*4*-(R)-pyrrolidin-3-yl-thieno[3,2-d]pyrimidine-4,7-diamine]",100 to 1000
12,"CN1CCN(c2cccc(Nc3cc(-c4nc(N[C@@H]5CCNC5)c5sccc5n4)ccn3)c2)CC1 [compound 605, (2-{2-[3-(4-Methyl-piperazin-1-yl)-phenylamino]-pyridin-4-yl}-thieno[3,2-d]pyrimidin-4-yl)-(R)-pyrrolidin-3-yl-amine]",100 to 1000

# Now from value to compound:
row,IC50 [nM],Structure (SMILES)
1,1000 to 10000,"CC(C)(C)C#Cc1csc2c(NC[C@@H](N)Cc3ccccc3)nc(-c3ccncc3)nc12 [compound 511, (S)-N*1*-[7-(3,3-Dimethyl-but-1-ynyl)-2-pyridin-4-yl-thieno[3,2-d]pyrimidin-4-yl]-3-phenyl-propane-1,2-diamine]"
2,< 100,"Cc1sc2c(NC[C@@H](N)Cc3ccccc3)nc(-c3ccncc3)nc2c1-c1ccn[nH]1 [compound 388, (S)—N*1*-[6-methyl-7-(2H-pyrazol-3-yl)-2-pyridin-4-yl-thieno[3,2-d]pyrimidin-4-yl]-3-phenyl-propane-1,2-diamine]"
3,1000 to 10000,"Cc1ccc(-c2csc3c(NC[C@@H](N)Cc4ccccc4)nc(-c4ccncc4)nc23)o1 [compound 412, (S)-N*1*-[7-(5-Methyl-furan-2-yl)-2-pyridin-4-yl-thieno[3,2-d]pyrimidin-4-yl]-3-phenyl-propane-1,2-diamine]"
4,1000 to 10000,"CC(C)(C)/C=C/c1csc2c(NC[C@@H](N)Cc3ccccc3)nc(-c3ccncc3)nc12 [compound 406, (S)-N*1*-[7-((E)-3,3-Dimethyl-but-1-enyl)-2-pyridin-4-yl-thieno[3,2-d]pyrimidin-4-yl]-3-phenyl-propane-1,2-diamine]"
5,1000 to 10000,"Cc1sc2c(NC[C@@H](N)Cc3ccccc3)nc(-c3ccncc3)nc2c1-c1ccccc1 [compound 449, (S)-N*1*-(6-Methyl-7-phenyl-2-pyridin-4-yl-thieno[3,2-d]pyrimidin-4-yl)-3-phenyl-propane-1,2-diamine]"
6,10000 to 40000,"Cc1sc2c(NC[C@@H](N)Cc3ccccc3)nc(-c3ccncc3)nc2c1-c1c(Cl)cccc1C(F)(F)F [compound 452, (S)-N*1*-[7-(2-Chloro-6-trifluoromethyl-phenyl)-6-methyl-2-pyridin-4-yl-thieno[3,2-d]pyrimidin-4-yl]-3-phenyl-propane-1,2-diamine]"
7,10000 to 40000,"CCOc1ccc(Cl)cc1-c1c(C)sc2c(NC[C@@H](N)Cc3ccccc3)nc(-c3ccncc3)nc12 [compound 463, (S)-N*1*-[7-(5-Chloro-2-ethoxy-phenyl)-6-methyl-2-pyridin-4-yl-thieno[3,2-d]pyrimidin-4-yl]-3-phenyl-propane-1,2-diamine]"
8,1000 to 10000,"CC(C)(O)C#Cc1c(C(C)(C)C)sc2c(NC[C@@H](N)Cc3ccccc3)nc(-c3ccncc3)nc12 [compound 505, 4-[4-((S)-2-Amino-3-phenyl-propylamino)-6-tert-butyl-2-pyridin-4-yl-thieno[3,2-d]pyrimidin-7-yl]-2-methyl-but-3-yn-2-ol]"
9,10000 to 40000,"CC(C)(C)c1sc2c(NC[C@@H](N)Cc3ccccc3)nc(-c3ccncc3)nc2c1-c1ccoc1 [compound 445, (S)-N*1*-(6-tert-Butyl-7-furan-3-yl-2-pyridin-4-yl-thieno[3,2-d]pyrimidin-4-yl)-3-phenyl-propane-1,2-diamine]"
10,100 to 1000,"N[C@H](CNc1nc(-c2ccncc2)nc2c(-n3cccn3)csc12)Cc1ccccc1 [compound 561, (S)-3-Phenyl-N*1*-(7-pyrazol-1-yl-2-pyridin-4-yl-thieno [3,2-d]pyrimidin-4-yl)-propane-1,2-diamine]"
11,1000 to 10000,"CN(C)C(=O)c1csc2c(NC[C@@H](N)Cc3ccccc3)nc(-c3ccncc3)nc12 [compound 550, 4-((S)-2-Amino-3-phenyl-propylamino)-2-pyridin-4-yl-thieno[3,2-d]pyrimidine-7-carboxylic acid dimethylamide]"

# Same assay, conditions: full length PKCi at 15 μM ATP; read-out: IC50 in IMAP assay against full length PKCi (Activity)
row,IC50 [nM],Structure (SMILES)
1,1000 to 10000,"CC(=O)N1CCc2c(sc3nc(-c4ccncc4)nc(NCCN)c23)C1 [compound 105, 1-[4-(2-Amino-ethylamino)-2-pyridin-4-yl-5,8-dihydro-6H-pyrido[4′,3′:4,5]thieno[2,3-d]pyrimidin-7-yl]-ethanone]"
2,1000 to 10000,"COc1ccccc1C[C@H](N)CNc1nc(-c2ccncc2)nc2sc3c(c12)CCCC3 [compound 49, (S)-3-(2-methoxy-phenyl)-N*1*-(2-pyridin-4-yl-5,6,7,8-tetrahydro-benzo[4,5]thieno[2,3-d]pyrimidin-4-yl)-propane-1,2-diamine]"
3,1000 to 10000,"N[C@@H](CNc1nc(-c2ccncc2)nc2sc3c(c12)CCCCC3)Cc1ccccc1 [compound 70, (R)-3-Phenyl-N*1*-(2-pyridin-4-yl-6,7,8,9-tetrahydro-5H-10-thia-1,3-diaza-benzo[a]azulen-4-yl)-propane-1,2-diamine]"
4,100 to 1000,"Cc1ccccc1C[C@H](N)CNc1nc(-c2ccncc2)nc2sc3c(c12)CCCC3 [compound 53, (S)-N*1*-(2-Pyridin-4-yl-5,6,7,8-tetrahydro-benzo[4,5]thieno[2,3-d]pyrimidin-4-yl)-3-o-tolyl-propane-1,2-diamine]"
5,1000 to 10000,Cc1ccc(C[C@H](N)CNc2nc(-c3ccncc3)nc3sc4c(c23)CCCC4)cc1 [compound 46]

# From patent US10183950B2, “Thienopyrimidine inhibitors of atypical protein kinase C” (Cancer Research Technology Limited, priority 2011, dated 2019)
